{"source": "paper PMC4569848", "about": "(Nature Communications, 2015)", "format_in_all_cases": "cell-based", "key": {"β2AR [1]": {"tested_on": "β2AR", "assay": "Intramolecular BRET of Luc-β-arrestin-1-YFP (arrestin conformational change)", "settings": "HEK293 cells, 10 μM ISO, 10 min", "method": "(a) Activation of β2-AR-induced conformational changes in β-arrestin-1 as measured using intramolecular BRET. Plasmids encoding a β-arrestin-1 BRET biosensor (Luc-β-arrestin-1-YFP) and Flag-β2-AR were transiently co-transfected in HEK293 cells. After starvation, the cells were stimulated with ISO (10 μM) for 10 min. The effects of GRK phosphorylation of β2-AR on ISO-induced β-arrestin-1 conformational change were probed using siRNA-mediated GRK knockdown.\nThe pcDNA3.0-Flag-β2AR (Flag-β2AR), β-arrestin-1-YFP, pcDNA3.1-Luc-β-arrestin-2-YFP and pCDNA3.1-Clathrin constructs were generous gifts from Dr Lefkowitz at Duke University[21][32]. […] To monitor the β-arrestin-1 conformational change, the BRET sensor for β-arrestin-1 (pcDNA3.1-Luc-β-arrestin-1-YFP) was created by in-Fusion of the β-arrestin-1-YFP plasmid with the pcDNA3.1-Luc-β-arrestin-2-YFP construct[57][58]. […] All of the constructs and mutations were verified by DNA sequencing.\nHEK 293 cells were attained from ATCC and cultured at 37 °C and 5% CO2 in DMEM containing 10% (v/v) fetal bovine serum and penicillin–streptomycin (5,000 IU l^−1). GRK2 or GRK6 expression was silenced in HEK 293 cells using a specific small interfering RNA (siRNA) duplex."}, "β2AR [2]": {"tested_on": "β2AR", "assay": "Western blot of SRC activation (phospho-SRC 416)", "settings": "HEK293 cells, ISO 1, 5 and 15 min", "method": "(b) A representative western blotting is shown for the effects of knockdown of specific GRKs in β2-AR-mediated proto-oncogene tyrosine-protein kinase (SRC) activation. Left panel: HEK293 cells that were transiently transfected with Flag-β2-AR were stimulated with ISO for 1, 5 and 15 min. To examine the roles of GRK2 and GRK6 in β2-AR-mediated SRC activation, siRNAs that were selective for specific GRKs were transfected into the cells. A western blot representative of at least three independent experiments is shown on the left. Right panel: western blot signals of phospho-SRC 416 (a) were quantified using densitometry and are expressed as fold change versus basal level. […] (a,b) At least three independent experiments were performed. #P<0.05, ISO-stimulated cells are compared with unstimulated cells. *P<0.05; **P<0.01; ***P<0.005; GRK siRNA-treated cells are compared with control siRNA-treated cells.\nGRK2 or GRK6 expression was silenced in HEK 293 cells using a specific small interfering RNA (siRNA) duplex. […]\nTo examine the roles of GRK2 and GRK6 in β2-AR-mediated SRC activation, selective siRNA towards specific GRK and Flag-β2AR plasmids were co-transfected into HEK-293 cells. […] Lysate protein concentrations were determined using the Bradford protein assay. […] SRC-416 phosphorylation was detected using a specific antibody."}, "β2AR [3]": {"tested_on": "β2AR", "assay": "Co-IP β-arrestin-1/clathrin downstream of β2AR", "settings": "HEK293, 10 μM ISO, 15 min, β-arrestin-1 R25A (site 4) vs wild type", "from_the_text": "(§3) (a) The phospho-binding pattern of β-arrestin-1 determines selective arrestin functions downstream of β2AR in cells. […] The β-arrestin-1 was immunoprecipitated by HA-antibody-conjugated agarose and the formation of the β-arrestin-1/clathrin or β-arrestin-1/SRC was detected by specific clathrin or SRC antibodies. […] (a–c) Representative western blottings from at least three experiments are shown on the left and the statistics from at least three independent experiments are shown on the right. *P<0.05, **P<0.01; the effects of mutants were compared with the wild type.\n(§4) To examine the effects of β-arrestin-1 mutants on ISO, CCK-8s or somatostatin induced clathrin/β-arrestin-1 or SRC/β-arrestin-1 complex formation downstream of β2AR, CCKAR and SSTR2; HEK293 cells were co-transfected with Flag-β2AR/HA-β-arrestin-1, Flag-CCKAR/HA-β-arrestin-1 or Flag-SSTR2/HA-β-arrestin-1, respectively. Different HA-β-arrestin-1 mutations were used to detect the contribution of the phosphate-binding sites of β-arrestin-1 during the arrestin/clathrin or arrestin/SRC complex formatin. […] Immune complexes were analysed by western blotting with specific antibody towards clathrin or pSRC416, respectively.Representative western blots from at least three experiments are shown in Fig. 8."}, "β2AR [4]": {"tested_on": "β2AR", "assay": "Co-IP β-arrestin-1/SRC downstream of β2AR", "settings": "HEK293, 10 μM ISO, 15 min, β-arrestin-1 R7A (site 5) vs wild type", "from_the_text": "as §3, §4"}, "β2AR [5]": {"tested_on": "β2AR", "method": "To examine the effects of β-arrestin-1 mutants on ISO-induced β2AR/β-arrestin-1 complex formation, the co-immunoprecipitation experiment was performed[61][62]. In detail, HEK293 cells were co-transfected with Flag-β2AR and β-arrestin-1-YFP mutants. Twenty-four hours after transfection, the cells were starved for 4 h and then stimulated with ISO (10 μM) for 10 min. The cell lysates were subjected to immunoprecipitation using anti-FLAG beads incubated overnight at 4 °C. Immune complexes were analysed by western blotting with specific antibodies. The associated β-arrestin 1-YFP was detected using an anti-YFP antibody."}, "CCKAR [6]": {"tested_on": "CCKAR", "assay": "Co-IP β-arrestin-1/clathrin downstream of CCKAR", "settings": "HEK293, 2 μM CCK-8s", "description": "(§1) Figure 8 Phospho-pattern-selective mechanisms of specific arrestin functions are common for at least a subset of GPCRs. (a) The phospho-binding pattern of β-arrestin-1 determines selective arrestin functions downstream of β2AR in cells. HEK293 cells were co-transfected with Flag-β2AR and wild-type HA-β-arrestin-1 or specific phosphate-binding site mutants (R25A for site 4 and R7A for site 5), then stimulated with 10 μM isoproterenol (ISO) for 15 min. The β-arrestin-1 was immunoprecipitated by HA-antibody-conjugated agarose and the formation of the β-arrestin-1/clathrin or β-arrestin-1/SRC was detected by specific clathrin or SRC antibodies. […] (b,c) The phospho-binding pattern of β-arrestin-1 determines selective arrestin interaction with clathrin or SRC downstream of somatostatin receptor 2 (SSTR2, Fig. 4c) and cholecystokinin A receptor (CCKAR, Fig. 4d). […]\n(§2) To examine the effects of β-arrestin-1 mutants on ISO, CCK-8s or somatostatin induced clathrin/β-arrestin-1 or SRC/β-arrestin-1 complex formation downstream of β2AR, CCKAR and SSTR2; HEK293 cells were co-transfected with Flag-β2AR/HA-β-arrestin-1, Flag-CCKAR/HA-β-arrestin-1 or Flag-SSTR2/HA-β-arrestin-1, respectively. […] Immune complexes were analysed by western blotting with specific antibody towards clathrin or pSRC416, respectively.Representative western blots from at least three experiments are shown in Fig. 8."}, "CCKAR [7]": {"tested_on": "CCKAR", "assay": "Co-IP β-arrestin-1/SRC downstream of CCKAR", "settings": "HEK293, 2 μM CCK-8s, 15 min", "description": "as §1, §2"}, "SSTR2 [8]": {"tested_on": "SSTR2", "assay": "Co-IP β-arrestin-1/clathrin downstream of SSTR2", "settings": "HEK293, 1 μM somatostatin", "description": "as §1, §2"}, "SSTR2 [9]": {"tested_on": "SSTR2", "assay": "Co-IP β-arrestin-1/SRC downstream of SSTR2", "settings": "HEK293, 1 μM somatostatin", "description": "as §1, §2"}}, "note": "Entries after “also recorded” stand apart in the source; their conditions may differ. No end group written: not given here. *: point of attachment. sulfate = O=S(=O)(O)*"}
{"molecule": "CC(C)NCC(O)c1ccc(O)c(O)c1", "note": "(stereo not drawn) [ISO, isoproterenol]", "values": [{"measurement": "BRET signal of Rluc-β-arrestin-1-YFP", "setting": "β2AR [1]; Flag-β2AR", "result": "significantly increased the BRET signal"}, {"measurement": "BRET signal of Rluc-β-arrestin-1-YFP, GRK2 knockdown", "setting": "β2AR [1]; GRK2 siRNA", "result": "significantly reduced by the knockdown of either GRK2 or GRK6"}, {"measurement": "BRET signal of Rluc-β-arrestin-1-YFP, GRK6 knockdown", "setting": "β2AR [1]; GRK6 siRNA", "result": "significantly reduced by the knockdown of either GRK2 or GRK6"}, {"measurement": "SRC activation, role of GRK2 (knockdown)", "setting": "β2AR [2]; GRK2 siRNA", "result": "GRK2 is a negative regulator of β2-AR-induced SRC activation"}, {"measurement": "SRC activation, role of GRK6 (knockdown)", "setting": "β2AR [2]; GRK6 siRNA", "result": "GRK6 is required for SRC activation downstream of β2-AR activation"}, {"measurement": "β-arrestin-1/clathrin complex formation, R25A", "setting": "β2AR [3]", "result": "selectively impaired β-arrestin-1/clathrin interaction downstream of β2AR activation; also recorded: selectively disrupted the ISO-induced β-arrestin-1/clathrin complex formation"}, {"measurement": "β-arrestin-1/SRC complex formation, R7A", "setting": "β2AR [4]", "result": "specifically eliminated ISO-induced β-arrestin-1/SRC association; also recorded: the ISO-induced β-arrestin-1/SRC complex formation"}, {"measurement": "β2AR/β-arrestin-1 complex formation with β-arrestin-1 mutants", "setting": "β2AR [5]", "result": "All of the tested β-arrestin-1 mutants bound to β2AR after ISO stimulation"}]}
{"molecule": "CCK-8s: CCKAR agonist, 2 μM (DY(sulfate)MGWMDF; ends and bridges not checked; UniProt P06307 96-103, looked up)", "values": [{"measurement": "β-arrestin-1/clathrin interaction", "setting": "CCKAR [6]; 15 min", "result": "only promoted β-arrestin-1/clathrin interaction"}, {"measurement": "β-arrestin-1/clathrin interaction, R25A", "setting": "CCKAR [6]; β-arrestin-1 R25A vs wild type", "result": "selectively disrupted β-arrestin-1/clathrin interaction"}, {"measurement": "β-arrestin-1/SRC recruitment", "setting": "CCKAR [7]", "result": "only promoted β-arrestin-1/clathrin interaction"}]}
{"molecule": "somatostatin", "values": [{"measurement": "β-arrestin-1/clathrin recruitment", "setting": "SSTR2 [8]; 15 min", "result": "promoted both clathrin and SRC recruitment for β-arrestin-1"}, {"measurement": "β-arrestin-1/clathrin interaction, R25A", "setting": "SSTR2 [8]; β-arrestin-1 R25A vs wild type", "result": "selectively disrupted β-arrestin-1/clathrin interaction"}, {"measurement": "β-arrestin-1/SRC recruitment", "setting": "SSTR2 [9]; 15 min", "result": "promoted both clathrin and SRC recruitment for β-arrestin-1"}, {"measurement": "β-arrestin-1/SRC complex formation, R7A", "setting": "SSTR2 [9]; β-arrestin-1 R7A vs wild type", "result": "impaired the β-arrestin-1/SRC complex formation"}]}
